Test results as given in the supplement of paper PMC10627819.

How the values were obtained:
B. subtilis 168 [1] = experiment: fitness (endpoint OD595 vs no drug) (fraction); higher = more growth
Procedure, shortened: (§1)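 In 384-well plates at 37 °C, cultures began at OD595 0.01 in 30 µl, with 55 µl used for S. pneumoniae. OD595 readings every 30 min for 14 h were corrected by the first reading. Fitness divides the stationary-phase transition optical density by the robust mean of no-drug control wells. The result is capped at 1.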

S. aureus DSM 20231 [2] = experiment: as above
Procedure, shortened: as §1

B. subtilis 168 [3] = experiment: Bliss interaction score (quartile over a dose matrix) (fitness difference); higher = more antagonism (negative = synergy)
Procedure, shortened: (§2)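 The Bliss score is observed minus expected fitness, where expected fitness is the product of the single-drug fitness values inferred from the combination data. Fitness is the OD595 at the onset of stationary phase over the plate's robust no-drug mean, capped at 1. Scores are summarised by quartiles over technical, biological and donor/recipient replicates.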

S. pneumoniae D39V = experiment: as above
Procedure, shortened: as §2

S. aureus DSM 20231 [4] = experiment: as above
Procedure, shortened: as §2

S. aureus Newman = experiment: as above
Procedure, shortened: as §2
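For Bliss interaction score (quartile over a dose matrix) in this document: first quartile when negative (synergy) and third quartile when positive (antagonism).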
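For fitness (endpoint OD595 vs no drug) in this document: OD595 on entry to stationary phase over no-drug wells; at most 1.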

C[n+]1ccc(-c2cc[n+](C)cc2)cc1 [Paraquat] + COc1cc(Cc2cnc(N)nc2N)cc(OC)c1OC [Trimethoprim]
fitness, B. subtilis 168 [1], one replicate
Details | partner 0.1 µg/mL | partner 0.125 µg/mL | partner 0.2 µg/mL | partner 0.4 µg/mL | partner 1 µg/mL | partner 2 µg/mL
first compound 1.25 µg/mL | 0.944 | 0.737 | 0.744 | 0.526 | 0.309 | 0.332
first compound 2.5 µg/mL | 0.947 | 0.734 | 0.66 | 0.459 | 0.396 | 0.237
first compound 5 µg/mL | 0.873 | 0.626 | 0.642 | 0.358 | 0.068 | 0.0488

fitness
Details | first compound 1.25 µg/mL | first compound 2.5 µg/mL | first compound 5 µg/mL
B. subtilis 168 [1], partner 0.25 µg/mL | 0.683 | 0.604 | –
B. subtilis 168 [1], partner 0.5 µg/mL | 0.385 | – | 0.298
S. aureus DSM 20231 [2], partner 0.125 µg/mL | 0.715 | 0.741 | 0.68
S. aureus DSM 20231 [2], partner 0.25 µg/mL | 0.602 | 0.606 | 0.604
S. aureus DSM 20231 [2], partner 1 µg/mL | 0.0458 | 0.0312 | 0.0357

Details | Bliss interaction score
B. subtilis 168 [3] | -0.0973
S. aureus DSM 20231 [4] | 0.0513
S. aureus Newman | -0.0902
S. pneumoniae D39V | 0.0991
